Measured values as given in patent US20240408071A1, “NOVEL COMBINATION OF SEROTONIN RECEPTOR (5-HTR2B) ANTAGONIST AND AN IMMUNOMODULATOR AND CHEMOTHERAPEUTIC DRUGS FOR INHIBITION OF CANCER” (NATIONAL CENTRE FOR CELL SCIENCE, priority 2021, published 2024).

System: OT-II CD4 T cells
Experiment: OT-II peptide-specific proliferation of CFSE-tagged OT-II CD4 T cells in vitro
Type: cell-based, mouse
Details: BW-723C86 10 μM, OT-II peptide (Ova323-339), 5 days (FIG. 12A-B)
Experimental: FIG. 12 depicts that 5-HTR2B signalling affects the antigen-specific proliferation of CD4 T cells: (A-B) Total CD4 T cells were harvested from the lymph node of OT-II mice and they were tagged with CFSE and cultured in vitro in the presence or absence of OT-II peptide (Ova323-339), IL-2, 5-HTR2B agonist BW-723C86 (10 μM), Serotonin (20 μM) or 5-HTR2B antagonist RS-127445 (15 μM) for 5 days. After 5 days the proliferation of OT-II tetramer^+ CD4 T cells was measured and plotted as histogram overlay (A) or as statistical data (B). (C-D) Flow cytometric data and statistical analysis of the percentage of intra-tumoral OT-II-tetramer^+ IFNγ^+ CD4 T cell population from the control and RS-127445 treated MC38-ova tumor-bearing mice. (E-F) Flow cytometric data and statistical analysis of the percentage of intra-tumoral OT-II-tetramer^+ IFNγ^+ CD4 T cell population from the control and RS-127445 treated MC38-ova tumor-bearing mice. […]
A simple adoptive transfer experiment was performed to study the enhancement of CTL response in general or antigen-specific. […] The CFSE-tagged total lymph node cells from […] were cultured in the presence or absence of OT-II peptide (Ova323-339) 5-HTR2B agonist (BW-723C86), serotonin, and 5-HTR2B antagonist (RS-127445) as indicated in the figure for 5 days and the proliferation was measured (FIG. 12A-B). […]

CC(N)Cc1c[nH]c2ccc(OCc3cccs3)cc12 (stereo not shown) [BW-723C86]
OT-II peptide-specific proliferation of OT-II CD4 T cells: significantly reduced
